Source: PMC6881171, “A conserved ATP- and Scc2/4-dependent activity for cohesin in tethering DNA molecules” (Science Advances, 2019)

Molecular target: T1, budding yeast cohesin tetramer (Smc1, Smc3, Scc1/Mcd1, Scc3) with Scc2-Scc4 loader complex (Saccharomyces cerevisiae, UniProt P32908+P47037)
T1 construct: tetramer overexpressed in S. cerevisiae W303-1a; Smc1-3xStrepII, Mcd1-8xHis-3xHA; loader Scc2-3xmyc-3xStrepII with Scc4; tags kept; with Sister chromatid cohesion protein 1; Cohesin subunit SCC3; Sister chromatid cohesion protein 2; MAU2 chromatid cohesion factor homolog
Assay: [gamma-32P]ATP hydrolysis, thin-layer chromatography
Assay type: biochemical
Details: 30 nM cohesin, 60 nM Scc2/4, 0.2 nM lambda-DNA, 400 uM ATP, 0.5 mM MgCl2, 20 mM NaCl, pH 7.0, 29 C; labelled compound

`Nc1ncnc2c1ncn2[C@@H]1O[C@H](COP(=O)(O)OP(=O)(O)OP(=O)(O)O)[C@@H](O)[C@H]1O` [ATP] was tested. Which “[gamma-32P]ATP hydrolysis, thin-layer chromatography” value did it give?
Its value is “our purified Scc2-Scc4 complex was able to stimulate cohesin ATPase activity”.
